Measurements taken from EP4559461A1, “DUAL NLRP1 AND NLRP3 INHIBITORS FOR USE AS A MEDICAMENT” (Servicio Andaluz de Salud, priority 2023, dated 2025).
Like-named read-outs stand apart in the source and are kept apart here. Each block holds one compound with its values, some of them ahead of it.

Tests used:
[1] = test system: NLRP3 inflammasome; assay: cytokines released into the culture medium after LPS+ATP activation (ELISA); assay type: cell-based; settings: for IL-1β cytokine release: in vitro treatment, Figure 9; for IC50: estimated inhibitory capacity
Procedure: (§1) For biological assays, the THP-1 cell line (monocytes) was used and differentiated into macrophages using phorbol-12-myristate-13-acetate (PMA). They were then stimulated with 200 ng/mL ultrapure LPS for 4 hours, minus the negative control condition, to activate NLRP3 expression. At the same time, the necessary volume of the starting stock of each compound to be tested was added to reach the test concentration. After 4 h incubation at 37 °C, 5 mM ATP was added […] and incubated for 30 min to activate NLRP3 assembly. For NLRP1 activation, Valboropro, a specific inducer of this protein was used at 1µM for 24 hours. Protein expression levels were studied by western blot as a proteomic study and inflammation levels by determination of cytokines released into the medium by immunoassay techniques (ELISA).

[2] = ageing mouse model (age-related metabolic dysfunction); assay type: in vivo, C57BL/6J mice
Procedure: (§2) For a better characterization of the effect of C3, the inventors determined its effect in two in vivo models: ageing mice (to evaluate the effect in age-related metabolic dysfunction), and ovarian aging mice (to evaluate the effect in infertility because of ovarian aging).
18-month-old C57BL/6J mice were treated with C3 (10 mg/Kg/day i.p.) or with a vehicle solution (saline) for over 4 weeks.

[3] = target: T1, NLRP3 (Homo sapiens, UniProt Q96P20); assay: in vitro model of NLRP3 induction (LPS + ATP) in PMA-differentiated THP-1 macrophages, protein expression by western blot; assay type: cell-based
T1 construct: the THP-1 cell line (monocytes) was used and differentiated into macrophages; endogenous in cells; host or cells: THP-1 monocytes differentiated into macrophages with PMA
T1 sequence (Q96P20 whole entry): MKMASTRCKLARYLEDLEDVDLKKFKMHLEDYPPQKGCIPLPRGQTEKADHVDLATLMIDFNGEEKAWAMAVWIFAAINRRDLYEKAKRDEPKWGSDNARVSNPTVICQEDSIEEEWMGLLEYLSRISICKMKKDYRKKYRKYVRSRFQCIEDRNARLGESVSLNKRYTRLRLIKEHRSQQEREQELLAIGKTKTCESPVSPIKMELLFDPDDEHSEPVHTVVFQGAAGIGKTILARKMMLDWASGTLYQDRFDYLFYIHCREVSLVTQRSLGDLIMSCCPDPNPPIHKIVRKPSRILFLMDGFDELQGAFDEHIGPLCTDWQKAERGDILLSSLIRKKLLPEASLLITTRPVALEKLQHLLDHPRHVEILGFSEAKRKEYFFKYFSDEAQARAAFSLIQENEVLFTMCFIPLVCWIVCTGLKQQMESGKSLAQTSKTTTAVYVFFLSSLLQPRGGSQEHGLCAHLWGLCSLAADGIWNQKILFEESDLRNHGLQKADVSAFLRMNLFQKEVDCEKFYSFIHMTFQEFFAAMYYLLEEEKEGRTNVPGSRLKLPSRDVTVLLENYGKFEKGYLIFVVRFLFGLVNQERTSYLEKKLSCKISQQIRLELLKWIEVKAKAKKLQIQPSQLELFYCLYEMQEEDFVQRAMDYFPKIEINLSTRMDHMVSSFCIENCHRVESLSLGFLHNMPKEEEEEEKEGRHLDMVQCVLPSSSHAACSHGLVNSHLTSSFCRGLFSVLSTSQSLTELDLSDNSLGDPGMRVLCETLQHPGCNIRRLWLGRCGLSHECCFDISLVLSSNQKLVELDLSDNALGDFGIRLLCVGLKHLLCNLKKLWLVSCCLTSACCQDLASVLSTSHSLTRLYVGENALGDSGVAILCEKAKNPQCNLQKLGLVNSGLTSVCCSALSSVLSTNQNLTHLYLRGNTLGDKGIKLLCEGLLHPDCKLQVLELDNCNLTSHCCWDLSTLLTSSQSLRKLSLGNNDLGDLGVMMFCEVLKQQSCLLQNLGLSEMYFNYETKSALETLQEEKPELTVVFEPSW
Procedure: as §1
(§3) The inventors of the present invention evaluated the inhibitory effects of compound C3 in an in vitro model of NLRP3 induction (LPS + ATP), and in an […] model of NLRP1 induction (ValboroPro or Vbp).

[4] = target: T2, NLRP1 (Homo sapiens, UniProt Q9C000); assay: in vitro model of NLRP1 induction (ValboroPro) in THP-1 macrophages, protein expression by western blot; assay type: cell-based; settings: ValboroPro (Vbp) induction; dose-dependent; Figure 3
T2 construct: the THP-1 cell line (monocytes) was used and differentiated into macrophages; endogenous in cells; host or cells: THP-1 monocytes differentiated into macrophages with PMA
T2 sequence (Q9C000 1-1473): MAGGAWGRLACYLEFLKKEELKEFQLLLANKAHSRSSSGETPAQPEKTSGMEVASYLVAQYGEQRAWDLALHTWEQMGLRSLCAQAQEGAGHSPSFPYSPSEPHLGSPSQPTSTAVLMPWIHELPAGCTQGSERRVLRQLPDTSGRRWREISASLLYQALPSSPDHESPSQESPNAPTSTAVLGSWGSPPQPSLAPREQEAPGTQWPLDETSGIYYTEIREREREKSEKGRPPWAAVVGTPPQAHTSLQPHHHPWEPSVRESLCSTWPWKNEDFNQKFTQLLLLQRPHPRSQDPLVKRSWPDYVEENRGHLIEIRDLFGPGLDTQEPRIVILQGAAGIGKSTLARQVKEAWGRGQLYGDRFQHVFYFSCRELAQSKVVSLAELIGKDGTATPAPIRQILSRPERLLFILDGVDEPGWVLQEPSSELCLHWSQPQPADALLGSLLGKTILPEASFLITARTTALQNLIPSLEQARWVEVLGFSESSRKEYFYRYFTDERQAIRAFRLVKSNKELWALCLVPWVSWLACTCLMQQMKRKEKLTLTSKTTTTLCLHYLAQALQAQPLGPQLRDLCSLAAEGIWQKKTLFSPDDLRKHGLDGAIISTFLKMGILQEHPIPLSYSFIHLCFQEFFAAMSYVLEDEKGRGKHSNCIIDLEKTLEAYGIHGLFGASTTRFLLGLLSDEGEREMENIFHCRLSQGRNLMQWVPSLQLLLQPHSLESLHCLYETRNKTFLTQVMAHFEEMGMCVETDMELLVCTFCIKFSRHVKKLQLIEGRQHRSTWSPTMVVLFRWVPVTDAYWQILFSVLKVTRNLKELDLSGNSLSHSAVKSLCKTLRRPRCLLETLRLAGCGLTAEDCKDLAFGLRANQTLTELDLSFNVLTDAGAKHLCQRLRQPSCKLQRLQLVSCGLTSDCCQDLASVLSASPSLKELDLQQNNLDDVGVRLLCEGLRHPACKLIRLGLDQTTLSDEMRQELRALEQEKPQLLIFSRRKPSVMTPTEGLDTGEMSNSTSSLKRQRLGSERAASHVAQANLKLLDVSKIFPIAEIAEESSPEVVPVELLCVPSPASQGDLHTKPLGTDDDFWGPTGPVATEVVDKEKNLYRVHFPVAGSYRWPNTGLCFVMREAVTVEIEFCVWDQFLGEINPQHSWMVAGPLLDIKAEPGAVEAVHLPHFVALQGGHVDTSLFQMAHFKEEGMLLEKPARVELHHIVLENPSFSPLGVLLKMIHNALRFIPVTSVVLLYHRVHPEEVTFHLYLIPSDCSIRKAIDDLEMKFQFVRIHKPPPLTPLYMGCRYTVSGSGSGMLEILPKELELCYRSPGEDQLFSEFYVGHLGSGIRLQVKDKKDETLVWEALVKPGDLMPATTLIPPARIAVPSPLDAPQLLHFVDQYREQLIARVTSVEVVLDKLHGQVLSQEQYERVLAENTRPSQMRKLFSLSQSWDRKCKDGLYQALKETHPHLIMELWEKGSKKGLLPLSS
Procedure: as §1, §3

[5] = target: T3, NEK7 to NLRP3 (Homo sapiens, UniProt Q96P20); assay: NEK7 co-immunoprecipitation; assay type: binding; settings: Figure 7
T3 construct: For biological assays, the THP-1 cell line (monocytes) was used; endogenous in cells
T3 sequence (Q96P20 whole entry): as the sequence (Q96P20 whole entry) above
Source text: One of the possible mechanisms for NLRP3 inhibition is the inhibition of its binding to NEK7, since it has been shown that NEK7 interacts with NLRP3 to modulate NLRP3 inflammasome activation.

[6] = ovarian ageing mouse model; assay type: in vivo, mice
Source text: as §2
The second model used to evaluate the effect of C3 was related to ovarian aging. The reason behind this is that NLRP1 and NLRP3 is over-expressed during ovarian ageing (Figure 15).
For this, the inventors used 9-month-old adult mice to which C3 was administered for one month.

[7] = test system: AIM-2, NLRP2, NLRC3 or NLRC4; assay: expression of other inflammasome proteins (western blot, Figure 5); assay type: cell-based
Procedure: as §1
This is reflected by the increased ability of C3 to inhibit the expression of NLRP1, NLRP3, IL-1β and IL-18 compared to MCC950 and C5 (Figure 5 and Figure 8).

[8] = test system: THP-1 cell line; assay: in vitro toxicity (cell viability); assay type: cell-based; settings: regardless of the dose tested; Figure 6
[9] = 18-month-old mice, 10 mg/Kg/day i.p., over 4 weeks, vs vehicle, Figure 10
[10] = ageing mice, 10 mg/Kg/day i.p., Figure 12
[11] = microscopic liver sections, Figure 12
[12] = old mice, 10 mg/Kg/day i.p., Figure 11
[13] = 9-month-old mice, administered for one month, Figure 13
[14] = histological staining, vs vehicle, Figure 14

SMILES: COc1ccc(CNS(C)(=O)=O)cc1 [Compound C1, N-(4-methoxybenzyl) methanesulfonamide]
IL-1β cytokine release [1]: reduction

SMILES: CS(=O)(=O)NCc1ccc2c(c1)OCO2 [Compound C2, N-(4,5-methylenedioxybenzyl) methanesulfonamide]
IL-1β cytokine release [1]: reduction

expression of NLRP3 ([3]; LPS + ATP induction, dose-dependent, Figure 3): inhibited the expression
expression of the inflammasome activation-associated protein IL-1β ([3]; LPS+ATP or VbP induction, dose-dependent, Figure 3): reduced the expression
inhibitory capacity (expression of NLRP1, NLRP3, IL-1β and IL-18) ([3]; compared to MCC950 and C5, Figure 5 and Figure 8): increased inhibitory capacity
expression of NLRP1 [4]: inhibited the expression
binding of NEK7 to NLRP3 [5]: inhibited the binding
IC50 ([1]; Figure 4A, read-out: IC50 (IL-1β) release into the culture medium): 5.38 nM
IC50 ([1]; Figure 4B, read-out: IC50 (IL-18) release into the culture medium): 4450 nM
SMILES: CS(=O)(=O)NCc1cccc2ccccc12 [Compound C3, N-(naphthalen-1-ylmethyl) methanesulfonamide]
abdominal fat [2, 9]: significantly reduced
body weight [2, 9]: significantly reduced
NLRP1 protein expression [2, 10]: significant reduction
NLRP3 protein expression [2, 10]: significant reduction
serum IL1β levels [2, 10]: significant reduction
age-associated hepatic fibrosis [2, 11]: significantly reduced
age-associated hepatic steatosis [2, 11]: significantly reduced
glucose levels upon glucose challenges at the OGTT peak (>15 min) ([2]; old mice, 10 mg/Kg/day i.p., vs control, Figure 11): significantly decreased
serum leptin/adiponectin [2, 12]: reduced
serum levels of adiponectin [2, 12]: reduced
serum levels of leptin [2, 12]: reduced
AMH receptor [6, 13]: increase
Follicle-stimulating hormone (FSH) [6, 13]: reduction
antimüllerian hormone (AMH) [6, 13]: significant increase
protein levels of active Caspase 1 [6, 13]: decreased
protein levels of active IL-1β [6, 13]: decreased
improvement of the ovarian reserve by AMH hormone ([6]; compared to NLRP1 KO and NLRP3 KO mice, Figure 15): significantly higher improvement
percentage of atretic follicles [6, 14]: lower percentage
percentage of follicles [6, 14]: higher percentage
modulation of other inflammasome proteins such as AIM-2, NLRP2, NLRC3 or NLRC4 [7]: did not result in the modulation
cell viability [8]: above 85%

SMILES: CS(=O)(=O)NCc1ccc(Cl)cc1 [Compound C4, N-(4-chlorobenzyl) methanesulfonamide]
IL-1β cytokine release [1]: reduction

SMILES: O=S(=O)(Cc1ccc2ccccc2c1)NCc1ccccc1 [Compound C7, N-benzyl-1-(naphthalen-2-yl) methanesulfonamide]
IL-1β cytokine release [1]: reduction
